Experimental data as given in US5302514A, “Maltooligoside derivative, reagent for determining α-amylase activity containing the same as effective ingredient and a process for determining the α-amylase activity using same” (Kikkoman Corporation, priority 1991, dated 1994).

Columns and labels:
[1] = molecular target: T1, amylase derived from human saliva (human S type α-amylase) (Homo sapiens, UniProt P0DUB6); assay: Patterns of action (hydrolyzed product by HPLC), S type α-amylase; assay type: biochemical; settings: 0.5 mM substrate, 37° C., 20 minutes
T1 sequence (P0DUB6 16-511): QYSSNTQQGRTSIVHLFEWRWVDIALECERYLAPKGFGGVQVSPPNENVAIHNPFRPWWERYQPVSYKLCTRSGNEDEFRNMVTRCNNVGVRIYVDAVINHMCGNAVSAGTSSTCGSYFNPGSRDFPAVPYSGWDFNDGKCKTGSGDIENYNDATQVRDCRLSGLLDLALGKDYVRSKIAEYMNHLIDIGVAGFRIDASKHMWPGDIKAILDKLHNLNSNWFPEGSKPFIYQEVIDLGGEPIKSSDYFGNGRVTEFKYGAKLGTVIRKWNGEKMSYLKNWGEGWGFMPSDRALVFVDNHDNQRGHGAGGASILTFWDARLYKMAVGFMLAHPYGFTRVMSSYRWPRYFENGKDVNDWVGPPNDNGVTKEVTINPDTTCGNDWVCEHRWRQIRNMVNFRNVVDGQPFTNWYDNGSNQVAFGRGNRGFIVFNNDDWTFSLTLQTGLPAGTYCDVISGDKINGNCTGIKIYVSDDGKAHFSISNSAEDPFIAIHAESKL
Protocol: (§1) Commercially available human P type and S type α-amylase solutions having a concentration of ca. 500 IU/l were prepared in the same manner as in the step (3) of Example 5.
(§2) To 1.0 ml of the substrate solution was added 100 μl of the α-amylase solution prepared in the paragraph (iii) of the aforementioned hydrolysis rate, and the mixture, after stirred sufficiently, was subjected to reaction at 37° C. for 20 minutes. The hydrolyzed product was determined quantitatively by the high performance liquid chromatography of the reaction mixture.
(§3) S: amylase derived from human saliva.

Solubility in water = assay type: physicochemical; settings: 20 g of substrate added to 100 ml of water
Protocol: To 100 ml of water was added 20 g of a substrate, and the dissolution state was observed.

[2] = molecular target: T2, amylase derived from human pancreatic juice (human P type α-amylase) (Homo sapiens, UniProt P04746); assay: Patterns of action (hydrolyzed product by HPLC), P type α-amylase; assay type: biochemical; settings: 0.5 mM substrate, 37° C., 20 minutes
T2 sequence (P04746 16-511): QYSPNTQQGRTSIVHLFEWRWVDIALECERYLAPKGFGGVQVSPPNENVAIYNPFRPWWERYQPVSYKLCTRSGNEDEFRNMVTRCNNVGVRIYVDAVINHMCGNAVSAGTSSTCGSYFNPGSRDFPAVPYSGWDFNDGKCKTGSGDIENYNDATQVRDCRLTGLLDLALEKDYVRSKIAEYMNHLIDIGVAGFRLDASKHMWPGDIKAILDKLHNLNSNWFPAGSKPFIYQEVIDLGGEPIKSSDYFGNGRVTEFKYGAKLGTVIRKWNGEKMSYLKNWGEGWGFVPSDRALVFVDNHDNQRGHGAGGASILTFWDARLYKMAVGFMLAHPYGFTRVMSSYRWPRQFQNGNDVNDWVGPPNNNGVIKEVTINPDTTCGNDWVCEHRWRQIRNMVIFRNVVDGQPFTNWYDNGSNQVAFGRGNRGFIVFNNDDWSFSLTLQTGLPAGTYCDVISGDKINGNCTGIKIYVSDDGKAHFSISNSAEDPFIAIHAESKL
Protocol: as §1, §2
(§4) P: amylase derived from human pancreatic juice, […]

[3] = molecular target: T1, amylase derived from human saliva (human S type α-amylase); assay: Hydrolysis rate, S type α-amylase; assay type: biochemical; settings: relative to hydrolysis rate of 3 mM G5CNP defined as 10, substrate 7-9 times the Km
Protocol: (§5) The coupled enzyme solution was prepared in the same manner as in the step (2) of Example 5.
as §1
(§6) With 250 μl of the α-amylase solution prepared in (iii) was mixed 1.0 ml of the coupled enzyme. The mixture was heated at 37° C. for 1 minute, and 2.0 ml of the substrate solution was added with stirring to the mixture. The variation of absorbance at 400 nm was measured for 2 minutes after heating the mixture at 37° C. for 2 minutes. The hydrolysis rate of each substrate, namely the variable absorbance per unit time was expressed with the relative values to the hydrolysis rate of 3 mM G5CNP (the reference substrate) which is defined as 10.
as §3

[4] = molecular target: T1, amylase derived from human saliva (human S type α-amylase); assay: Km value, S type α-amylase; assay type: biochemical; settings: pH 7.0, 37° C., Lineweaver-Burk
Protocol: (§7) Km values, hydrolysis rate, water solubility and the patterns of action in the hydrolysis of the present substrates 2-chloro-4-nitrophenyl 5^5 -eno-4^5 -O-mesyl-β-D-maltopentaoside (EMG5CNP) and 2-chloro-4-nitrophenyl 6^5 -azido-6^5 -deoxy- β-D-maltopentaoside (ADG5CNP) obtained in Example were examined in accordance with the following methods.
(§8) Substrate solutions were prepared by dissolving in a 50 mM phosphate buffer (pH=7.0) containing 40 mM NaCl and 2 mM MgCl2 a substrate to 0.16, 0.32, 0.48, 0.64, 0.80 and 0.96 mM, respectively.
(§9) The Km value of each substrate solution was obtained by measuring the hydrolysis rate of the substrate in accordance with the same procedure as in the measurement of hydrolysis rate described below and roughly calculating the Lineweaver-Burk's reciprocal plot (see "Tanpaku-Kohso no Jikken-hou", ed. Takeichi Horio & Jinpei Yamashita, Nanko-do, 1981).
(§10) Each substrate was dissolved in a 50 mM phosphate buffer (pH=7.0) containing 40 mM NaCl and 2 mM MgCl2 to make three substrate solutions in a concentration of 0.8-1.6 times and three substrate solutions in a concentration of 1.6-3.2 times per the roughly calculated Km value in the aforementioned paragraph (ii).
(§11) The Km value was calculated in accordance with the same procedure as in the aforementioned paragraph (ii).
as §3

[5] = molecular target: T2, amylase derived from human pancreatic juice (human P type α-amylase); assay: Hydrolysis rate, P type α-amylase; assay type: biochemical; settings: relative to hydrolysis rate of 3 mM G5CNP defined as 10, substrate 7-9 times the Km
Protocol: as §5, §1, §6, §4

[6] = molecular target: T2, amylase derived from human pancreatic juice (human P type α-amylase); assay: Km value, P type α-amylase; assay type: biochemical; settings: pH 7.0, 37° C., Lineweaver-Burk
Protocol: as §7, §8, §9, §10, §11, §4

[7] = system: human α-amylase (P:S=1:1); assay: α-Amylase hydrolysis (increase in absorbance at 400 nm with coupled enzymes); assay type: biochemical; settings: for Increase in absorbance for 2 minutes (corrected by the 0 IU/l of α-amylase activity): substrate solution 3.00 mM, 400 nm, 37° C., pH 7.0; for hydrolysis by α-amylase (in words): as understood from Tables 1 and 2
Protocol: Coupled enzyme solution was prepared by dissolving a commercially available α-glucosidase derived from yeast and a commercially available β-glucosidase derived from almond in a 50 mM phosphate buffer (pH=7.0) containing 40 mM NaCl and 2 mM MgCl2 to a concentration of 117 units/ml and 13 units/ml, respectively. As the commercially available α- and β-glucosidases, those available from Toyobo Co., Ltd. were used.
Standard α-amylase solutions were prepared by dissolving a commercially available human α-amylase (P:S=1:1) in purified water to a concentration of 0, 148, 284, 401 and 525 IU/l, respectively. As the commercially available human α-amylase, Calibzyme.AMY manufactured by International Reagents Corp. was employed. As for the activity of α-amylase, an amount of the enzyme which decomposes 1μ mol of (a commercially available) 2-chloro-4-nitrophenyl β-D-maltopentaoside at 37° C. for one minute was defined as 1 international unit (IU).
The substrate solution (a) was prepared by dissolving 2-chloro-4-nitorphenyl 6^5 -azido-6^5 -deoxy-β-D-maltopentaoside (referred to hereinafter as the substrate of the present invention) obtained in Example 3 in a 50 mM phosphate buffer (pH=7.0) containing 40 mM NaCl and 2 mM MgCl2 to a concentration of 3.00 mM.
The substrate solution (b) was prepared by dissolving 2-chloro-4-nitrophenyl 6^3 -azido-6^3 -deoxy-β-D-maltotrioside (referred to hereinafter as the reference substrate) obtained in the step (1) in a 50 mM phosphate buffer (pH=7.0) containing 40 mM NaCl and 2 mM MgCl2 to a concentration of 3.00 mM.
A coupled enzyme solution was prepared in the same manner as in the step (2) of Example 5.
α-amylase solutions were prepared in the same manner as in the step (3) of Example 5 by dissolving a commercially available human α-amylase (P:S=1:1) in purified water to a concentration of 0, 250 and 500 IU/l, respectively.
The coupled enzyme solution in an amount of 1.0 ml was added with stirring to 250 μl of the α-amylase solution, and the mixture was heated at 37° C. for one minute. Each of the substrate solution in an amount of 2.0 ml was added with stirring to the mixture, and the mixture was heated at 37° C. for 2 minutes before measuring the variation of the absorbance at 400 nm for 2 minutes.
2-chloro-4-nitrophenyl 5^5 -eno-4^5 -O-mesyl-β-D-maltopentaoside (referred to hereinafter as substrate of the present invention) obtained in Example 1 was dissolved in a 50 mM phosphate buffer (pH=7.0) containing 40 mM NaCl and 2 mM MgCl2 to a concentration of 3.00 mM.
2-chloro-4-nitrophenyl 5^3 -eno-4^3 -O-mesyl-β-D-maltotrioside(referred to hereinafter as reference substrate) obtained in the previous step (1) was dissolved in a 50 mM phosphate buffer (pH=7.0) containing 40 mM NaCl an 2 mM MgCl2 to a concentration of 3.00 mM.
α-amylase solutions were prepared in the same manner as in the step (5) of Example 7.
The variations of absorbance were measured in the same manner as in the step (6) of Example 7.

Patterns of action, hydrolyzed product G2CNP [1] [mol %] | Patterns of action, hydrolyzed product G3CNP [1] [mol %] | Patterns of action, hydrolyzed product G4CNP [1] [mol %] | Patterns of action, hydrolyzed product GCNP [1] [mol %] | Solubility in water (Solubility in water) | Patterns of action, hydrolyzed product G2CNP [2] [mol %] | Patterns of action, hydrolyzed product G3CNP [2] [mol %] | Patterns of action, hydrolyzed product G4CNP [2] [mol %] | Patterns of action, hydrolyzed product GCNP [2] [mol %] | Hydrolysis rate [3] | Km [4] [µM] | Hydrolysis rate [5] | Km [6] [µM] | Increase in absorbance for 2 minutes (corrected by the 0 IU/l of α-amylase activity) ([7]; Table 1, α-amylase activity 250 IU/l) | Increase in absorbance for 2 minutes (corrected by the 0 IU/l of α-amylase activity) ([7]; Table 1, α-amylase activity 500 IU/l) | hydrolysis by α-amylase (in words) [7] | Increase in absorbance for 2 minutes (corrected by the 0 IU/l of α-amylase activity) ([7]; Table 2, α-amylase activity 250 IU/l) | Increase in absorbance for 2 minutes (corrected by the 0 IU/l of α-amylase activity) ([7]; Table 2, α-amylase activity 500 IU/l) | Compound
83 | 11 | 4 | 2 | Good | 81 | 8 | 8 | 3 | 10 | 370 | 10 | 290 | – | – | – | – | – | O=[N+]([O-])c1ccc(O[C@@H]2O[C@H](CO)[C@@H](O[C@H]3O[C@H](CO)[C@@H](O[C@H]4O[C@H](CO)[C@@H](O[C@H]5O[C@H](CO)[C@@H](O[C@H]6O[C@H](CO)[C@@H](O)[C@H](O)[C@H]6O)[C@H](O)[C@H]5O)[C@H](O)[C@H]4O)[C@H](O)[C@H]3O)[C@H](O)[C@H]2O)c(Cl)c1 [Example G5CNP, 2-chloro-4-nitrophenylβ-D-maltopentaoside, reference compound]
– | – | – | – | – | – | – | – | – | – | – | – | – | 0.002 | 0.005 | hardly hydrolyzed | – | – | [N-]=[N+]=NC[C@H]1O[C@H](O[C@H]2[C@H](O)[C@@H](O)[C@@H](O[C@H]3[C@H](O)[C@@H](O)[C@H](Oc4ccc([N+](=O)[O-])cc4Cl)O[C@@H]3CO)O[C@@H]2CO)[C@H](O)[C@@H](O)[C@@H]1O [Substrate solution (b) (Table 1), 2-chloro-4-nitrophenyl 6^3-azido-6^3-deoxy-β-D-maltotrioside, reference compound]
– | – | – | – | – | – | – | – | – | – | – | – | – | – | – | hardly hydrolyzed | 0.001 | 0.002 | C=C1O[C@H](O[C@H]2[C@H](O)[C@@H](O)[C@@H](O[C@H]3[C@H](O)[C@@H](O)[C@H](Oc4ccc([N+](=O)[O-])cc4Cl)O[C@@H]3CO)O[C@@H]2CO)[C@H](O)[C@@H](O)[C@@H]1OS(C)(=O)=O [Substrate solution (b) (Table 2), 2-chloro-4-nitrophenyl 5^3-eno-4^3 -O-mesyl-β-D-maltotrioside, reference compound]
